# Reference: article PMC11243196, “Identification of Benzothiazoles Bearing 1,3,4-Thiadiazole as Antiproliferative Hybrids Targeting VEGFR-2 and BRAF Kinase: Design, Synthesis, BIO Evaluation and In Silico Study” (Molecules, 2024)
# Where two headings read alike, the source gives them in different places.
# Assays:
# HCT-116 = test: MTT antiproliferative assay, HCT-116; assay type: cell-based; conditions: Homo sapiens, HCT-116, read-out: IC50 (µM) HCT-116
# WI-38 cells = test: Cytotoxicity against normal human cells, WI-38; assay type: cell-based; conditions: normal lung cell line WI-38
# MCF-7 = test: MTT antiproliferative assay, MCF-7; assay type: cell-based; conditions: Homo sapiens, MCF7; breast cancer MCF-7, MTT
# HePG-2 = test: MTT antiproliferative assay, HePG-2; assay type: cell-based; conditions: Homo sapiens, HepG2; hepatocellular carcinoma HePG-2, MTT
# BRAF^V600E = test system: BRAF^V600E; parameters: method as in PMID 23906342; conditions: read-out: IC50 against BRAF^V600E; cited from earlier work
# [1] = test system: HePG-2, HCT-116 and MCF-7 cell lines; test: MTT antiproliferative assay, range over the three cancer cell lines; assay type: cell-based; conditions: Homo sapiens
# Protocol: Sorafenib was used as a positive control medication.
# As previously documented, the in vitro anticancer efficacy of the produced hybrids was evaluated using an MTT test. The used cell lines was bought from Vacsera (Giza, Egypt).
# BRAF (V600E) = BRAF (V600E) (Homo sapiens, UniProt P15056, V600E); test: In vitro BRAF (V600E) kinase inhibitory assay; assay type: biochemical
# BRAF (V600E), sequence (P15056 whole entry V600E): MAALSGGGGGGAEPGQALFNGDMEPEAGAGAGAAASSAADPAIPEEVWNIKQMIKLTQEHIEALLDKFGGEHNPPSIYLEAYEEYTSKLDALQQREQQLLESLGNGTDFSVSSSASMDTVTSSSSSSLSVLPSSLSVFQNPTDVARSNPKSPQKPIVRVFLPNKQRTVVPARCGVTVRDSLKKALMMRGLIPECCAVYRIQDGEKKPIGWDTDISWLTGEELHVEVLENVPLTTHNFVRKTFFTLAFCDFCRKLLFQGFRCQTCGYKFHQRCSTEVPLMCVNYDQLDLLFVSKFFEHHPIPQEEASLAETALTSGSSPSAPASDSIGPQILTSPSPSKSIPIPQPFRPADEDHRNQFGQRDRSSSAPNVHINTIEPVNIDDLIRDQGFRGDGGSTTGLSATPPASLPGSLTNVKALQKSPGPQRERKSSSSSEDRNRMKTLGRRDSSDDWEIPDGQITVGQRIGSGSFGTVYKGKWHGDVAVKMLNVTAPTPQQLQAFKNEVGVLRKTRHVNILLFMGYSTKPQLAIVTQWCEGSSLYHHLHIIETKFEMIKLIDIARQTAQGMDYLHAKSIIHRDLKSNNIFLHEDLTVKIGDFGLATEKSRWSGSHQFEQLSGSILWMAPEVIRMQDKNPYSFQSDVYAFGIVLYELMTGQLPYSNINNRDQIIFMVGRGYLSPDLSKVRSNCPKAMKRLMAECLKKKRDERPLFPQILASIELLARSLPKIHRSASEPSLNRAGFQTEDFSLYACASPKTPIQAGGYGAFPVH
# VEGFR-2 = VEGFR-2 (Homo sapiens, UniProt P35968); test: In vitro VEGFR-2 kinase inhibitory assay; assay type: biochemical
# VEGFR-2, sequence (P35968 20-1356): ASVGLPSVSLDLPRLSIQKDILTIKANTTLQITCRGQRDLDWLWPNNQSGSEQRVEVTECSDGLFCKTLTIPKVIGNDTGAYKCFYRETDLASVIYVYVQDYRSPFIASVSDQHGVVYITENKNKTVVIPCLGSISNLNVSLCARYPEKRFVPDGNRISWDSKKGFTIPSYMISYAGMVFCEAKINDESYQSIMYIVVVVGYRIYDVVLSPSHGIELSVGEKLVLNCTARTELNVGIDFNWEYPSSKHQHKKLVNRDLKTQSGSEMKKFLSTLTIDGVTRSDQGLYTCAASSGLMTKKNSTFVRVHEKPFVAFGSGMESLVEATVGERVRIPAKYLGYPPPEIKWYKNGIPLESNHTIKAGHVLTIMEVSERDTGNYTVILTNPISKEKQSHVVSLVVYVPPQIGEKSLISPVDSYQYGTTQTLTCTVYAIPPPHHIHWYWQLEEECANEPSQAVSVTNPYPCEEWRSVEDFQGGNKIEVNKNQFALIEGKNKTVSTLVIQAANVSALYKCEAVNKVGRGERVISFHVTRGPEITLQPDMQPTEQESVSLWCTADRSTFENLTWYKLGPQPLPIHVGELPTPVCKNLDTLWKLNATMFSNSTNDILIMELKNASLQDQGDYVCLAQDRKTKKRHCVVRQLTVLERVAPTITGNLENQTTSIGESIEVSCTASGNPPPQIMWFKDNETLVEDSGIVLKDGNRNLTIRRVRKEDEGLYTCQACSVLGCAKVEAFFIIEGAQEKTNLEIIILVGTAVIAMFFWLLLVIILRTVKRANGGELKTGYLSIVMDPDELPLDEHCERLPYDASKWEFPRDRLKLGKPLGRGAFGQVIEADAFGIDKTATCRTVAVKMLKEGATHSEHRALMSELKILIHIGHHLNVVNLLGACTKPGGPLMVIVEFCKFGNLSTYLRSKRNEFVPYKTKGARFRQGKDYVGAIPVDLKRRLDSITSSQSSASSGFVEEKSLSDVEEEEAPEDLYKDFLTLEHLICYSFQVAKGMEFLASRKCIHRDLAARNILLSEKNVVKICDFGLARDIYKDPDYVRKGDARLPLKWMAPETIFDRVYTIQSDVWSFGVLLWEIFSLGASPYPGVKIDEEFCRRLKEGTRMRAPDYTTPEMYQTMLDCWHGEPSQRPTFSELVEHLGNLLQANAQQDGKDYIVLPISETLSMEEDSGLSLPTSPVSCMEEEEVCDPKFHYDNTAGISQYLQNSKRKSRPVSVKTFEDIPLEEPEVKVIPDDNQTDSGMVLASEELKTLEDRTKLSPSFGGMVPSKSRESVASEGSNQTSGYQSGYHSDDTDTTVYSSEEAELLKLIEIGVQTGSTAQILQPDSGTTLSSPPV
# Protocol: […]. The in vitro assays were carried out as previously described.
# MCF-7 cells [2] = test: Cell cycle analysis by DNA flow cytometry (PI); assay type: cell-based, human
# Protocol: To ascertain the precise cell cycle phase at which our highly promising chemical 4f causes the MCF7 breast cancer cells to cease their progression, we conducted cell cycle analysis and apoptotic experiments utilizing DNA flow cytometry.
# As previously documented, the cell cycle study was conducted on the MCF-7 cell lines, stained with PI and examined using a Calibur flow cytometer.
# MCF-7 cells [3] = test: Annexin V-FITC/PI apoptosis detection; assay type: cell-based, human; conditions: 24 h, untreated control 0.89%
# Source text: The level of apoptosis was quantified utilizing the MCF-7 cell lines and Annexin V-FITC/PI apoptosis detection kit, as documented in the literature.
# [4] = range over HePG-2, HCT-116, MCF-7, read-out: IC50 range of the compound over the cancer cell lines
# [5] = one range for the group 4a, 4f, 4l, 4r over three cancer cell lines, read-out: IC50 values ranging, against three cancer cell lines
# [6] = read-out: IC50 range of the compound over the cancer cell lines
SMILES,IC50 (HCT-116),IC50 (WI-38 cells),IC50 (MCF-7),IC50 (HePG-2),IC50 (BRAF^V600E),"IC50 [1, 4]",IC50 (BRAF (V600E)),IC50 (VEGFR-2),"IC50 [1, 5]","IC50 [1, 6]",melting point,Cell Cycle Distribution (%) G2-M (MCF-7 cells [2]; untreated 15.85%),Cell Cycle Distribution (%) S (MCF-7 cells [2]; untreated 26.33%),Cell Cycle Distribution (%) G0-G1 (MCF-7 cells [2]; untreated 57.82%),proportion of apoptotic cells (early and late) (MCF-7 cells [3])
"O=C(CSc1nnc(NC(=O)Nc2ccc(Cl)cc2)s1)Nc1nc2ccc(Cl)cc2s1 [4p, N-(6-Chlorobenzo[d]thiazol-2-yl)-2-((5-(3-(4-chlorophenyl)ureido)-1,3,4-thiadiazol-2-yl)thio)acetamide]",71.3 ± 3.7 µM,94.1 ± 4.9 µM,62.6 ± 3.2 µM,57 ± 3.1 µM,,,,,,,,,,,
N#Cc1c(Oc2ccc(F)c(NC(=O)Cc3cccc(C(F)(F)F)c3)c2)ccc2nc(NC(=O)C3CC3)sc12 [TAK-632],,,,,0.0024 µM,,,,,,,,,,
"COc1ccc(NC(=O)Nc2nnc(SCC(=O)Nc3nc4ccccc4s3)s2)cc1 [4c, N-(Benzo[d]thiazol-2-yl)-2-((5-(3-(4-methoxyphenyl)ureido)-1,3,4-thiadiazol-2-yl)thio)acetamide]",65.5 ± 3.5 µM,91.3 ± 4.6 µM,54.5 ± 2.9 µM,42.2 ± 2.6 µM,,42.2 to 65.5 µM,,,,,,,,,
"O=C(CSc1nnc(NC(=O)Nc2ccc(C(F)(F)F)c(Cl)c2)s1)Nc1nc2ccc(Cl)cc2s1 [4r, 2-((5-(3-(3-Chloro-4-(trifluoromethyl)phenyl)ureido)-1,3,4-thiadiazol-2-yl)thio)-N-(6-chlorobenzo[d]thiazol-2-yl)acetamide]",7.81 ± 0.6 µM,38.8 ± 2.2 µM,3.85 ± 0.2 µM,8.1 ± 0.6 µM,,,1.36 µM,0.794 µM,3.58 to 15.4 µM,3.85 to 8.1 µM,,,,,
"Cc1ccc(NC(=O)Nc2nnc(SCC(=O)Nc3nc4ccc(Cl)cc4s3)s2)cc1 [4n, N-(6-Chlorobenzo[d]thiazol-2-yl)-2-((5-(3-(p-tolyl)ureido)-1,3,4-thiadiazol-2-yl)thio)acetamide]",44.8 ± 2.5 µM,> 100 µM,36.7 ± 2.1 µM,32.8 ± 2.4 µM,,,,,,,,,,,
"Cc1ccc2nc(NC(=O)CSc3nnc(NC(=O)Nc4ccccc4)s3)sc2c1 [4g, N-(6-Methylbenzo[d]thiazol-2-yl)-2-((5-(3-phenylureido)-1,3,4-thiadiazol-2-yl)thio)acetamide]",19.6 ± 1.3 µM,79.4 ± 4 µM,16.5 ± 1.2 µM,22.9 ± 1.8 µM,,16.5 to 22.9 µM,,,,,,,,,
"Cc1ccc2nc(NC(=O)CSc3nnc(NC(=O)Nc4ccc(F)cc4)s3)sc2c1 [4k, 2-((5-(3-(4-Fluorophenyl)ureido)-1,3,4-thiadiazol-2-yl)thio)-N-(6-methylbenzo[d]thiazol-2-yl)acetamide]",92 ± 4.6 µM,58.5 ± 3.2 µM,69.5 ± 3.5 µM,64.2 ± 3.7 µM,,,,,,,,,,,
"Cc1ccc2nc(NC(=O)CSc3nnc(NC(=O)Nc4ccc(C(F)(F)F)c(Cl)c4)s3)sc2c1 [4l, 2-((5-(3-(3-Chloro-4-(trifluoromethyl)phenyl)ureido)-1,3,4-thiadiazol-2-yl)thio)-N-(6-methylbenzo[d]thiazol-2-yl)acetamide]",13.5 ± 1 µM,47.5 ± 2.7 µM,9.46 ± 0.6 µM,15.4 ± 1.2 µM,,9.46 to 15.4 µM,,,3.58 to 15.4 µM,,,,,,
"Cc1ccc(NC(=O)Nc2nnc(SCC(=O)Nc3nc4ccccc4s3)s2)cc1 [4b, N-(Benzo[d]thiazol-2-yl)-2-((5-(3-(p-tolyl)ureido)-1,3,4-thiadiazol-2-yl)thio)acetamide]",61.8 ± 3.3 µM,81 ± 4.2 µM,46.5 ± 2.6 µM,48.2 ± 2.5 µM,,46.5 to 61.8 µM,,,,,,,,,
"O=C(CSc1nnc(NC(=O)Nc2ccc(F)cc2)s1)Nc1nc2ccccc2s1 [4e, N-(Benzo[d]thiazol-2-yl)-2-((5-(3-(4-fluorophenyl)ureido)-1,3,4-thiadiazol-2-yl)thio)acetamide]",82.5 ± 4.2 µM,> 100 µM,67.1 ± 3.4 µM,63.4 ± 3.4 µM,,63.4 to 82.5 µM,,,,,,,,,
"Cc1ccc2nc(NC(=O)CSc3nnc(NC(=O)Nc4ccc(Cl)cc4)s3)sc2c1 [4j, 2-((5-(3-(4-Chlorophenyl)ureido)-1,3,4-thiadiazol-2-yl)thio)-N-(6-methylbenzo[d]thiazol-2-yl)acetamide]",> 100 µM,> 100 µM,84.2 ± 4.2 µM,78.1 ± 3.9 µM,,,,,,,,,,,
"O=C(CSc1nnc(NC(=O)Nc2ccccc2)s1)Nc1nc2ccccc2s1 [4a, N-(Benzo[d]thiazol-2-yl)-2-((5-(3-phenylureido)-1,3,4-thiadiazol-2-yl)thio)acetamide]",9.94 ± 0.8 µM,66.2 ± 3.5 µM,5.91 ± 0.3 µM,12.9 ± 0.9 µM,,,0.677 µM,0.342 µM,3.58 to 15.4 µM,5.91 to 12.9 µM,273 to 275 °C,,,,
"O=C(CSc1nnc(NC(=O)Nc2ccccc2)s1)Nc1nc2ccc(Cl)cc2s1 [4m, N-(6-Chlorobenzo[d]thiazol-2-yl)-2-((5-(3-phenylureido)-1,3,4-thiadiazol-2-yl)thio)acetamide]",34.4 ± 2.1 µM,74.5 ± 3.8 µM,28.9 ± 1.9 µM,29.8 ± 2 µM,,28.9 to 34.4 µM,,,,,,,,,
"O=C(CSc1nnc(NC(=O)Nc2ccc(C(F)(F)F)c(Cl)c2)s1)Nc1nc2ccccc2s1 [4f, N-(Benzo[d]thiazol-2-yl)-2-((5-(3-(3-chloro-4-(trifluoromethyl)phenyl)ureido)-1,3,4-thiadiazol-2-yl)thio)acetamide]",6.21 ± 0.4 µM,41.2 ± 2.4 µM,2.74 ± 0.1 µM,5.05 ± 0.3 µM,,,0.194 µM,0.071 µM,3.58 to 15.4 µM,2.74 to 5.05 µM,,12.77%,22.72%,64.51%,37.83%
"COc1ccc(NC(=O)Nc2nnc(SCC(=O)Nc3nc4ccc(Cl)cc4s3)s2)cc1 [4o, N-(6-Chlorobenzo[d]thiazol-2-yl)-2-((5-(3-(4-methoxyphenyl)ureido)-1,3,4-thiadiazol-2-yl)thio)acetamide]",51.6 ± 2.8 µM,26.4 ± 1.8 µM,43.5 ± 2.4 µM,35 ± 2.4 µM,,,,,,,,,,,
"COc1ccc(NC(=O)Nc2nnc(SCC(=O)Nc3nc4ccc(C)cc4s3)s2)cc1 [4i, 2-((5-(3-(4-Methoxyphenyl)ureido)-1,3,4-thiadiazol-2-yl)thio)-N-(6-methylbenzo[d]thiazol-2-yl)acetamide]",76.7 ± 3.9 µM,45.5 ± 2.6 µM,59.5 ± 3.1 µM,53.1 ± 2.7 µM,,53.1 to 76.7 µM,,,,,,,,,
"O=C(CSc1nnc(NC(=O)Nc2ccc(F)cc2)s1)Nc1nc2ccc(Cl)cc2s1 [4q, N-(6-Chlorobenzo[d]thiazol-2-yl)-2-((5-(3-(4-fluorophenyl)ureido)-1,3,4-thiadiazol-2-yl)thio)acetamide]",25.4 ± 1.8 µM,49.7 ± 2.9 µM,21.7 ± 1.5 µM,27.4 ± 2.2 µM,,21.7 to 27.4 µM,,,,,,,,,
"O=C(CSc1nnc(NC(=O)Nc2ccc(Cl)cc2)s1)Nc1nc2ccccc2s1 [4d, N-(Benzo[d]thiazol-2-yl)-2-((5-(3-(4-chlorophenyl)ureido)-1,3,4-thiadiazol-2-yl)thio)acetamide]",39.7 ± 2.3 µM,89.1 ± 4.3 µM,33.6 ± 2 µM,30.2 ± 2.3 µM,,30.2 to 33.6 µM,,,,,,,,,
"Cc1ccc(NC(=O)Nc2nnc(SCC(=O)Nc3nc4ccc(C)cc4s3)s2)cc1 [4h, N-(6-Methylbenzo[d]thiazol-2-yl)-2-((5-(3-(p-tolyl)ureido)-1,3,4-thiadiazol-2-yl)thio)acetamide]",56.2 ± 3 µM,87.8 ± 4.4 µM,40.6 ± 2.3 µM,37.4 ± 2.5 µM,,37.4 to 56.2 µM,,,,,,,,,
